# Data from DBAASP.
# Legend:
# Test in all cases: ≥ marks a high value that may be exact or a test limit, other limits are often not marked, values filed in µg/mL are converted to µM
# [1] = test system: Proteus vulgaris KCTC 2433
# [2] = test system: Saccharomyces cerevisiae KCTC 7296
# [3] = test system: Trichosporon beigelii KCTC 7707
# [4] = test system: Bacillus subtilis KCTC 1918
# [5] = test system: Candida albicans TIMM 1768
# [6] = test system: Salmonella typhimurium KCTC 1926
# [7] = test system: Staphylococcus aureus KCTC 1621
# [8] = test system: Aeromonas salmonicida NCIMB 1102
# [9] = test system: Planococcus citreus NCIMB 1493
# [10] = test system: Micrococcus luteus ATCC 4698
# [11] = test system: Psychrobacter immobilis NCIMB 308
# [12] = test system: Corynebacterium glutamicum ATCC 13032
# [13] = test system: Escherichia coli ATCC 25922
# [14] = test system: Yersinia ruckeri NCIMB 2196
# [15] = test system: Vibrio anguillarum NCIMB 2129
# [16] = test system: Vibrio anguillarum NCIMB 2133
# [17] = test system: Staphylococcus aureus ATCC 9144
# Yersinia ruckeri VI-3629 = test system: Yersinia ruckeri VI-3629
# [18] = test system: Vibrio anguillarum VI-F258-3
# [19] = test system: Stenotrophomonas maltophilia B32/1
# [20] = test system: Staphylococcus epidermidis T6/19
# [21] = test system: Stenotrophomonas maltophilia U8908
# [22] = test system: Staphylococcus aureus 127/08
# [23] = test system: Candida albicans ATCC 90028
# [24] = test system: Staphylococcus epidermidis RP62A/1
# [25] = test system: Enterococcus faecalis ATCC 29212
# [26] = test system: Staphylococcus epidermidis RP62A
# [27] = test system: Stenotrophomonas maltophilia B5/5
# [28] = test system: Pseudomonas aeruginosa ATCC 27853
# [29] = test system: Acinetobacter baumannii NM35
# [30] = test system: Staphylococcus epidermidis T37/8
# [31] = test system: Acinetobacter baumannii NM8
# [32] = test system: Klebsiella pneumoniae ATCC 700603
# [33] = test system: Escherichia coli ATCC 25726
# [34] = test system: Staphylococcus aureus 145/08
# [35] = test system: Staphylococcus aureus ATCC 8530
# [36] = test system: Micrococcus luteus ATCC 9341
# Escherichia coli JM109 = test system: Escherichia coli JM109
# [37] = test system: Bacillus subtilis IFO 3513
# [38] = test system: Saccharomyces cerevisiae PEP 4/3l
# [39] = test system: Escherichia coli IFO 12734
# [40] = test system: Staphylococcus aureus IFO 12732
# Escherichia coli W160-37 = test system: Escherichia coli W160-37
# [41] = test system: Salmonella enterica subsp. enterica serovar Typhimurium ATCC 700408
# [42] = test system: Salmonella enterica subsp. enterica serovar Typhimurium ATCC 14028
# [43] = test system: Klebsiella pneumoniae ATCC 13883
# [44] = test system: Staphylococcus aureus ATCC 25923
# [45] = test system: Staphylococcus aureus ATCC BAA-39
# [46] = test system: Staphylococcus aureus ATCC 43300
# [47] = test system: Listeria monocytogenes ATCC 19115
compound,measurement,setting,value
CC[C@H](C)[C@H](NC(=O)CNC(=O)[C@H](CC(C)C)NC(=O)[C@H](CCCN=C(N)N)NC(=O)[C@H](CCCCN)NC(=O)[C@H](Cc1ccccc1)NC(=O)[C@@H](NC(=O)[C@H](CCCCN)NC(=O)[C@H](Cc1c[nH]c2ccccc12)NC(=O)[C@H](C)N)C(C)C)C(=O)NCC(=O)N[C@@H](C)C(=O)N[C@H](C(=O)N[C@@H](CC(C)C)C(=O)N[C@@H](Cc1c[nH]c2ccccc12)C(=O)N[C@H](C(=O)N[C@@H](CC(C)C)C(=O)N[C@H](C(=O)N[C@@H](Cc1c[nH]c2ccccc12)C(=O)NCC(=O)O)[C@@H](C)O)C(C)C)C(C)C [AWKVFKRLGIGAVLWVLTWG],MIC,[1],6.25 µM
same,MIC,[2],≥ 50 µM
same,MIC,[3],≥ 50 µM
same,MIC,[4],6.25 µM
same,MIC,[5],≥ 50 µM
same,MIC,[6],0.78 µM
same,MIC,[7],6.25 µM
CC[C@H](C)[C@H](NC(=O)[C@H](CC(C)C)NC(=O)CNC(=O)[C@@H](NC(=O)[C@@H](NC(=O)[C@H](Cc1cnc[nH]1)NC(=O)[C@H](Cc1cnc[nH]1)NC(=O)[C@H](CC(C)C)NC(=O)[C@@H](N)Cc1ccccc1)[C@@H](C)CC)C(C)C)C(=O)N[C@@H](Cc1cnc[nH]1)C(=O)N[C@@H](Cc1cnc[nH]1)C(=O)NCC(=O)N[C@@H](CC(C)C)C(=O)N[C@@H](CO)C(=O)N[C@@H](CC(C)C)C(=O)N[C@@H](Cc1ccccc1)C(=O)NCC(=O)N[C@@H](CC(=O)O)C(=O)N[C@@H](CCCN=C(N)N)C(=O)N[C@@H](C)C(=O)N[C@@H](CC(=O)O)C(=O)O [FLHHIVGLIHHGLSLFGDRAD],MIC,[8],10 µM
same,MIC,[9],10 µM
same,MIC,[10],10 µM
same,MIC,[11],3.54 µM
same,MIC,[12],10 µM
same,MIC,[13],> 10 µM
same,MIC,[14],3.54 µM
same,MIC,[15],10 µM
same,MIC,[16],10 µM
same,MIC,[17],10 µM
same,MIC,Yersinia ruckeri VI-3629,10 µM
same,MIC,[18],10 µM
CC[C@H](C)[C@H](NC(=O)CN)C(=O)N[C@@H](Cc1ccccc1)C(=O)N1CCC[C@H]1C(=O)N[C@H](C(=O)N[C@@H](Cc1ccccc1)C(=O)N[C@@H](C)C(=O)N[C@@H](CCCCN)C(=O)N[C@@H](CC(C)C)C(=O)N[C@@H](CC(C)C)C(=O)NCC(=O)N[C@@H](CCCCN)C(=O)N[C@H](C(=O)N[C@H](C(=O)N[C@@H](CCCCN)C(=O)N[C@H](C(=O)N[C@@H](C)C(=O)N[C@@H](CO)C(=O)N[C@@H](CO)C(=O)N[C@@H](CC(C)C)C(=O)N[C@H](C(=O)N[C@@H](CO)C(=O)N[C@@H](CCCCN)C(=O)NCC(=O)N[C@@H](CCCN=C(N)N)C(=O)N[C@H](C(=O)N[C@@H](CCC(=O)O)C(=O)O)[C@@H](C)O)[C@@H](C)CC)C(C)C)[C@@H](C)CC)C(C)C)[C@@H](C)CC [GIFPIFAKLLGKVIKVASSLISKGRTE],MIC,[19],10 µM
same,MIC,[20],5 µM
same,MIC,[21],20 µM
same,MIC,[22],5 µM
same,MIC,[23],≥ 80 µM
same,MIC,[24],2.5 µM
same,MIC,[25],20 µM
same,MIC,[26],5 µM
same,MIC,[27],≥ 40 µM
same,MIC,[28],> 80 µM
same,MIC,[29],10 µM
same,MIC,[30],10 µM
same,MIC,[31],20 µM
same,MIC,[32],> 80 µM
same,MIC,[33],≥ 80 µM
same,MIC,[34],10 µM
CC[C@H](C)[C@H](N)C(=O)N[C@@H](CC(C)C)C(=O)N1CCC[C@H]1C(=O)N[C@@H](Cc1ccccc1)C(=O)N[C@@H](CCCCN)C(=O)N[C@@H](Cc1ccccc1)C(=O)N1CCC[C@H]1C(=O)N[C@@H](Cc1ccccc1)C(=O)N[C@@H](Cc1ccccc1)C(=O)N1CCC[C@H]1C(=O)N[C@@H](Cc1ccccc1)C(=O)N[C@@H](CCCN=C(N)N)C(=O)N[C@@H](CCCN=C(N)N)C(N)=O [ILPFKFPFFPFRR],MIC,[35],1.65 µM
same,MIC,[36],0.4 µM
same,MIC,Escherichia coli JM109,8 µM
same,MIC,[37],7.3 µM
same,MIC,[38],13.1 µM
same,MIC,[39],≥ 58.4 µM
same,MIC,[40],3.65 µM
same,MIC,Escherichia coli W160-37,16 µM
CC(C)C[C@H](NC(=O)[C@H](CCCN=C(N)N)NC(=O)CNC(=O)[C@H](CCC(N)=O)NC(=O)[C@@H]1CCCN1C(=O)[C@H](CC(C)C)NC(=O)[C@H](CCCCN)NC(=O)[C@H](Cc1ccccc1)NC(=O)[C@@H](NC(=O)[C@@H]1CCCN1C(=O)[C@H](CCC(N)=O)NC(=O)[C@H](CO)NC(=O)[C@H](Cc1ccccc1)NC(=O)[C@H](CCCN=C(N)N)NC(=O)[C@@H](N)CCC(N)=O)[C@@H](C)O)C(=O)N[C@H](C(=O)N[C@@H](CC(C)C)C(=O)N[C@@H](CO)C(=O)N[C@@H](CCCN=C(N)N)C(=O)N[C@@H](CCCCN)C(=O)N[C@@H](Cc1ccccc1)C(=O)N[C@@H](CCCN=C(N)N)C(=O)O)[C@@H](C)O [QRFSQPTFKLPQGRLTLSRKFR],MIC,[41],9.29 µM
same,MIC,[42],9.29 µM
same,MIC,[13],9.29 µM
same,MIC,[43],9.29 µM
same,MIC,[44],37.1 µM
same,MIC,[45],≥ 37.1 µM
same,MIC,[46],37.1 µM
same,MIC,[47],9.29 µM
